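Growth conditions: 96-well plates. Treatment: test compound, 48 hours, 5 concentrations. Analysis: linear interpolation between bracketing concentrations; unreached endpoints set to highest concentration. Definition used: TGI = concentration required for complete inhibition of growth.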
Assays:
Assay in all cases: NCI tumour cell line growth inhibition, 48 h
UACC-257 melanoma = tested on: UACC-257 melanoma
LOX IMVI melanoma = tested on: LOX IMVI melanoma
NCI-H460 lung = tested on: NCI-H460 lung
MDA-MB-231 breast = tested on: MDA-MB-231 breast
DU-145 prostate = tested on: DU-145 prostate
HCC-2998 colon = tested on: HCC-2998 colon
SNB-75 CNS = tested on: SNB-75 CNS
SNB-19 CNS = tested on: SNB-19 CNS
HCT-15 colon = tested on: HCT-15 colon
SN12C renal = tested on: SN12C renal
CCRF-CEM leukemia = tested on: CCRF-CEM leukemia
OVCAR-4 ovarian = tested on: OVCAR-4 ovarian
786-0 renal = tested on: 786-0 renal
UO-31 renal = tested on: UO-31 renal
SR leukemia = tested on: SR leukemia
MDA-MB-435 = tested on: MDA-MB-435
MDA-N = tested on: MDA-N
ACHN renal = tested on: ACHN renal
T-47D breast = tested on: T-47D breast
HOP-92 NSCLC = tested on: HOP-92 NSCLC
UACC-62 melanoma = tested on: UACC-62 melanoma
U251 CNS = tested on: U251 CNS
CAKI-1 renal = tested on: CAKI-1 renal
COLO 205 colon = tested on: COLO 205 colon
NCI-H23 lung = tested on: NCI-H23 lung
NCI/ADR-RES ovarian = tested on: NCI/ADR-RES ovarian
HCT-116 colon = tested on: HCT-116 colon
KM12 colon = tested on: KM12 colon
SK-MEL-28 melanoma = tested on: SK-MEL-28 melanoma
NCI-H226 lung = tested on: NCI-H226 lung
TK-10 renal = tested on: TK-10 renal
RPMI-8226 leukemia = tested on: RPMI-8226 leukemia
BT-549 breast = tested on: BT-549 breast
OVCAR-8 ovarian = tested on: OVCAR-8 ovarian
SF-268 CNS = tested on: SF-268 CNS
SW-620 colon = tested on: SW-620 colon
HOP-62 NSCLC = tested on: HOP-62 NSCLC
A549 NSCLC = tested on: A549 NSCLC
SF-295 CNS = tested on: SF-295 CNS
HS 578T breast = tested on: HS 578T breast
SK-MEL-2 melanoma = tested on: SK-MEL-2 melanoma
SK-MEL-5 melanoma = tested on: SK-MEL-5 melanoma
SF-539 CNS = tested on: SF-539 CNS
MOLT-4 leukemia = tested on: MOLT-4 leukemia
MALME-3M melanoma = tested on: MALME-3M melanoma
EKVX NSCLC = tested on: EKVX NSCLC
PC-3 prostate = tested on: PC-3 prostate
HT29 colon = tested on: HT29 colon
IGROV1 ovarian = tested on: IGROV1 ovarian
OVCAR-3 ovarian = tested on: OVCAR-3 ovarian
MCF7 breast = tested on: MCF7 breast
K-562 leukemia = tested on: K-562 leukemia
OVCAR-5 ovarian = tested on: OVCAR-5 ovarian
HL-60(TB) leukemia = tested on: HL-60(TB) leukemia
A498 renal = tested on: A498 renal
SK-OV-3 ovarian = tested on: SK-OV-3 ovarian
RXF 393 renal = tested on: RXF 393 renal
M14 melanoma = tested on: M14 melanoma
NCI-H522 lung = tested on: NCI-H522 lung

CC1(C)C(=O)C2(N)CCC1C2 (stereo not drawn)
TGI (UACC-257 melanoma): > 100 µM
TGI (LOX IMVI melanoma): > 100 µM
TGI (NCI-H460 lung): > 100 µM
TGI (MDA-MB-231 breast): > 100 µM
TGI (DU-145 prostate): > 100 µM
TGI (HCC-2998 colon): > 100 µM
TGI (SNB-75 CNS): > 100 µM
TGI (SNB-19 CNS): > 100 µM
TGI (HCT-15 colon): > 100 µM
TGI (SN12C renal): > 100 µM
TGI (CCRF-CEM leukemia): > 100 µM
TGI (OVCAR-4 ovarian): > 100 µM
TGI (786-0 renal): > 100 µM
TGI (UO-31 renal): > 100 µM
TGI (SR leukemia): > 100 µM
TGI (MDA-MB-435): > 100 µM
TGI (MDA-N): > 100 µM
TGI (ACHN renal): > 100 µM
TGI (T-47D breast): > 100 µM
TGI (HOP-92 NSCLC): > 100 µM
TGI (UACC-62 melanoma): > 100 µM
TGI (U251 CNS): > 100 µM
TGI (CAKI-1 renal): > 100 µM
TGI (COLO 205 colon): > 100 µM
TGI (NCI-H23 lung): > 100 µM
TGI (NCI/ADR-RES ovarian): > 100 µM
TGI (HCT-116 colon): > 100 µM
TGI (KM12 colon): > 100 µM
TGI (SK-MEL-28 melanoma): > 100 µM
TGI (NCI-H226 lung): > 100 µM
TGI (TK-10 renal): > 100 µM
TGI (RPMI-8226 leukemia): > 100 µM
TGI (BT-549 breast): > 100 µM
TGI (OVCAR-8 ovarian): > 100 µM
TGI (SF-268 CNS): > 100 µM

Cc1cccc2c1CC1(Cc3c(C)cccc3C1=O)C2=O
TGI (UACC-257 melanoma): > 100 µM
TGI (SW-620 colon): > 100 µM
TGI (HOP-62 NSCLC): > 100 µM
TGI (LOX IMVI melanoma): > 100 µM
TGI (A549 NSCLC): > 100 µM
TGI (SF-295 CNS): > 100 µM
TGI (NCI-H460 lung): > 100 µM
TGI (MDA-MB-231 breast): > 100 µM
TGI (DU-145 prostate): > 100 µM
TGI (HS 578T breast): > 100 µM
TGI (SK-MEL-2 melanoma): > 100 µM
TGI (HCC-2998 colon): > 100 µM
TGI (SNB-75 CNS): > 100 µM
TGI (SNB-19 CNS): > 100 µM
TGI (SK-MEL-5 melanoma): > 100 µM
TGI (HCT-15 colon): > 100 µM
TGI (SF-539 CNS): > 100 µM
TGI (CCRF-CEM leukemia): > 100 µM
TGI (MOLT-4 leukemia): > 100 µM
TGI (OVCAR-4 ovarian): > 100 µM
TGI (MALME-3M melanoma): > 100 µM
TGI (EKVX NSCLC): > 100 µM
TGI (PC-3 prostate): > 100 µM
TGI (HT29 colon): > 100 µM
TGI (786-0 renal): > 100 µM
TGI (IGROV1 ovarian): > 100 µM
TGI (OVCAR-3 ovarian): > 100 µM
TGI (UO-31 renal): > 100 µM
TGI (SR leukemia): > 100 µM
TGI (MDA-MB-435): > 100 µM
TGI (MDA-N): > 100 µM
TGI (ACHN renal): > 100 µM
TGI (MCF7 breast): > 100 µM
TGI (T-47D breast): > 100 µM
TGI (K-562 leukemia): > 100 µM
TGI (HOP-92 NSCLC): > 100 µM
TGI (U251 CNS): > 100 µM
TGI (CAKI-1 renal): > 100 µM
TGI (OVCAR-5 ovarian): > 100 µM
TGI (NCI-H23 lung): > 100 µM
TGI (HL-60(TB) leukemia): > 100 µM
TGI (NCI/ADR-RES ovarian): > 100 µM
TGI (HCT-116 colon): > 100 µM
TGI (A498 renal): > 100 µM
TGI (SK-OV-3 ovarian): > 100 µM
TGI (SK-MEL-28 melanoma): > 100 µM
TGI (RXF 393 renal): > 100 µM
TGI (M14 melanoma): > 100 µM
TGI (TK-10 renal): > 100 µM
TGI (RPMI-8226 leukemia): > 100 µM
TGI (NCI-H522 lung): > 100 µM
TGI (OVCAR-8 ovarian): > 100 µM
TGI (SF-268 CNS): > 100 µM

CN(C)C=Nc1cccc2c1NSN2
TGI (UACC-257 melanoma): > 100 µM
TGI (SW-620 colon): > 100 µM
TGI (HOP-62 NSCLC): > 100 µM
TGI (LOX IMVI melanoma): > 100 µM
TGI (A549 NSCLC): > 100 µM
TGI (SF-295 CNS): > 100 µM
TGI (NCI-H460 lung): > 100 µM
TGI (MDA-MB-231 breast): > 100 µM
TGI (DU-145 prostate): > 100 µM
TGI (HS 578T breast): > 100 µM
TGI (SK-MEL-2 melanoma): > 100 µM
TGI (HCC-2998 colon): > 100 µM
TGI (SNB-75 CNS): > 100 µM
TGI (SNB-19 CNS): > 100 µM
TGI (SK-MEL-5 melanoma): > 100 µM
TGI (HCT-15 colon): > 100 µM
TGI (SF-539 CNS): > 100 µM
TGI (SN12C renal): > 100 µM
TGI (CCRF-CEM leukemia): > 100 µM
TGI (MOLT-4 leukemia): > 100 µM
TGI (OVCAR-4 ovarian): > 100 µM
TGI (MALME-3M melanoma): > 100 µM
TGI (EKVX NSCLC): > 100 µM
TGI (PC-3 prostate): > 100 µM
TGI (HT29 colon): > 100 µM
TGI (786-0 renal): > 100 µM
TGI (IGROV1 ovarian): > 100 µM
TGI (OVCAR-3 ovarian): > 100 µM
TGI (UO-31 renal): > 100 µM
TGI (SR leukemia): > 100 µM
TGI (MDA-MB-435): > 100 µM
TGI (MDA-N): > 100 µM
TGI (ACHN renal): > 100 µM
TGI (MCF7 breast): > 100 µM
TGI (T-47D breast): > 100 µM
TGI (K-562 leukemia): > 100 µM
TGI (HOP-92 NSCLC): > 100 µM
TGI (UACC-62 melanoma): > 100 µM
TGI (U251 CNS): > 100 µM
TGI (CAKI-1 renal): > 100 µM
TGI (OVCAR-5 ovarian): > 100 µM
TGI (COLO 205 colon): > 100 µM
TGI (NCI-H23 lung): > 100 µM
TGI (HL-60(TB) leukemia): > 100 µM
TGI (NCI/ADR-RES ovarian): > 100 µM
TGI (HCT-116 colon): > 100 µM
TGI (A498 renal): > 100 µM
TGI (SK-OV-3 ovarian): > 100 µM
TGI (KM12 colon): > 100 µM
TGI (SK-MEL-28 melanoma): > 100 µM
TGI (RXF 393 renal): > 100 µM
TGI (M14 melanoma): > 100 µM
TGI (NCI-H226 lung): > 100 µM
TGI (TK-10 renal): > 100 µM
TGI (RPMI-8226 leukemia): > 100 µM
TGI (NCI-H522 lung): > 100 µM
TGI (OVCAR-8 ovarian): > 100 µM
TGI (SF-268 CNS): > 100 µM

O=C(Nc1ccccn1)c1cc2c(cc1Cl)Sc1nccn1S2(=O)=O
TGI (UACC-257 melanoma): > 100 µM
TGI (SW-620 colon): > 100 µM
TGI (HOP-62 NSCLC): > 100 µM
TGI (LOX IMVI melanoma): > 100 µM
TGI (A549 NSCLC): > 100 µM
TGI (SF-295 CNS): > 100 µM
TGI (NCI-H460 lung): > 100 µM
TGI (MDA-MB-231 breast): 53 µM
TGI (HS 578T breast): > 100 µM
TGI (SK-MEL-2 melanoma): 48.8 µM
TGI (HCC-2998 colon): 30.9 µM
TGI (SNB-75 CNS): > 100 µM
TGI (SNB-19 CNS): > 100 µM
TGI (SK-MEL-5 melanoma): 67.6 µM
TGI (HCT-15 colon): > 100 µM
TGI (SN12C renal): > 100 µM
TGI (CCRF-CEM leukemia): 95.9 µM
TGI (MOLT-4 leukemia): > 100 µM
TGI (OVCAR-4 ovarian): > 100 µM
TGI (MALME-3M melanoma): > 100 µM
TGI (EKVX NSCLC): 94.5 µM
TGI (PC-3 prostate): > 100 µM
TGI (HT29 colon): > 100 µM
TGI (786-0 renal): > 100 µM
TGI (IGROV1 ovarian): 76.4 µM
TGI (OVCAR-3 ovarian): > 100 µM
TGI (UO-31 renal): 94.9 µM
TGI (SR leukemia): > 100 µM
TGI (MDA-MB-435): > 100 µM
TGI (MDA-N): > 100 µM
TGI (ACHN renal): > 100 µM
TGI (MCF7 breast): > 100 µM
TGI (T-47D breast): 73.6 µM
TGI (K-562 leukemia): > 100 µM
TGI (HOP-92 NSCLC): > 100 µM
TGI (UACC-62 melanoma): > 100 µM
TGI (U251 CNS): > 100 µM
TGI (CAKI-1 renal): > 100 µM
TGI (OVCAR-5 ovarian): > 100 µM
TGI (COLO 205 colon): 83.5 µM
TGI (NCI-H23 lung): 82.6 µM
TGI (HL-60(TB) leukemia): 74.3 µM
TGI (NCI/ADR-RES ovarian): 85.6 µM
TGI (HCT-116 colon): > 100 µM
TGI (A498 renal): > 100 µM
TGI (SK-OV-3 ovarian): > 100 µM
TGI (KM12 colon): > 100 µM
TGI (SK-MEL-28 melanoma): > 100 µM
TGI (RXF 393 renal): 93.9 µM
TGI (M14 melanoma): > 100 µM
TGI (NCI-H226 lung): 57.3 µM
TGI (TK-10 renal): > 100 µM
TGI (RPMI-8226 leukemia): > 100 µM
TGI (NCI-H522 lung): > 100 µM
TGI (BT-549 breast): > 100 µM
TGI (OVCAR-8 ovarian): > 100 µM
TGI (SF-268 CNS): > 100 µM
